Test results from PubChem BioAssay (NCI).
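At the GI50, growth is halved. TGI: total growth inhibition.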

What was measured:
Test in all cases: growth of human tumour cells (NCI), 384-well format
786-0 renal = test system: 786-0 renal
A498 renal = test system: A498 renal
A549 NSCLC = test system: A549 NSCLC
ACHN renal = test system: ACHN renal
BT-549 breast = test system: BT-549 breast
CAKI-1 renal = test system: CAKI-1 renal
CCRF-CEM leukemia = test system: CCRF-CEM leukemia
COLO 205 colon = test system: COLO 205 colon
DU-145 prostate = test system: DU-145 prostate
EKVX NSCLC = test system: EKVX NSCLC
HCC-2998 colon = test system: HCC-2998 colon
HCT-116 colon = test system: HCT-116 colon
HCT-15 colon = test system: HCT-15 colon
HL-60(TB) leukemia = test system: HL-60(TB) leukemia
HOP-62 NSCLC = test system: HOP-62 NSCLC
HOP-92 NSCLC = test system: HOP-92 NSCLC
HS 578T breast = test system: HS 578T breast
HT29 colon = test system: HT29 colon
IGROV1 ovarian = test system: IGROV1 ovarian
K-562 leukemia = test system: K-562 leukemia
KM12 colon = test system: KM12 colon
LOX IMVI melanoma = test system: LOX IMVI melanoma
M14 melanoma = test system: M14 melanoma
MALME-3M melanoma = test system: MALME-3M melanoma
MCF7 breast = test system: MCF7 breast
MDA-MB-435 melanoma = test system: MDA-MB-435 melanoma
MDA-MB-468 breast = test system: MDA-MB-468 breast
MOLT-4 leukemia = test system: MOLT-4 leukemia
NCI-H226 lung = test system: NCI-H226 lung
NCI-H23 lung = test system: NCI-H23 lung
NCI-H322M lung = test system: NCI-H322M lung
NCI-H460 NSCLC = test system: NCI-H460 NSCLC
NCI-H522 lung = test system: NCI-H522 lung
NCI/ADR-RES ovarian = test system: NCI/ADR-RES ovarian
OVCAR-3 ovarian = test system: OVCAR-3 ovarian
OVCAR-4 ovarian = test system: OVCAR-4 ovarian
OVCAR-8 ovarian = test system: OVCAR-8 ovarian
PC-3 prostate = test system: PC-3 prostate
RPMI-8226 leukemia = test system: RPMI-8226 leukemia
RXF 393 renal = test system: RXF 393 renal
SF-268 CNS = test system: SF-268 CNS
SF-295 CNS = test system: SF-295 CNS
SF-539 CNS = test system: SF-539 CNS
SK-MEL-2 melanoma = test system: SK-MEL-2 melanoma
SK-MEL-28 melanoma = test system: SK-MEL-28 melanoma
SK-MEL-5 melanoma = test system: SK-MEL-5 melanoma
SK-OV-3 ovarian = test system: SK-OV-3 ovarian
SN12C renal = test system: SN12C renal
SNB-19 CNS = test system: SNB-19 CNS
SNB-75 CNS = test system: SNB-75 CNS
SW-620 colon = test system: SW-620 colon
TK-10 renal = test system: TK-10 renal
U251 glioblastoma = test system: U251 glioblastoma
UACC-257 melanoma = test system: UACC-257 melanoma
UACC-62 melanoma = test system: UACC-62 melanoma

Structure (SMILES): Cc1ccc(S(=O)(=O)Oc2ccc3sc4cccc(NCCN(C)C)c4c(=O)c3c2)cc1
- GI50 ([…]-0 renal): > 100 µM
- TGI (786-0 renal): > 100 µM
- GI50 (A498 renal): > 100 µM
- TGI (A498 renal): > 100 µM
- GI50 (A549 NSCLC): 1850 nM
- TGI (A549 NSCLC): 3.34 µM
- GI50 (ACHN renal): 1730 nM
- TGI (ACHN renal): 3.14 µM
- GI50 (BT-549 breast): 1860 nM
- TGI (BT-549 breast): 3.28 µM
- GI50 (CAKI-1 renal): 1650 nM
- TGI (CAKI-1 renal): 3.04 µM
- GI50 (CCRF-CEM leukemia): 1700 nM
- TGI (CCRF-CEM leukemia): 3.11 µM
- GI50 (COLO 205 colon): 1940 nM
- TGI (COLO 205 colon): 3.4 µM
- GI50 (DU-145 prostate): 1970 nM
- TGI (DU-145 prostate): 3.43 µM
- GI50 (EKVX NSCLC): 1850 nM
- TGI (EKVX NSCLC): 3.28 µM
- GI50 (HCC-2998 colon): 1240 nM
- TGI (HCC-2998 colon): 2510 nM
- GI50 (HCT-116 colon): 1830 nM
- TGI (HCT-116 colon): 3.3 µM
- GI50 (HCT-15 colon): > 100 µM
- TGI (HCT-15 colon): > 100 µM
- GI50 (HL-60(TB) leukemia): 787 nM
- TGI (HL-60(TB) leukemia): 2060 nM
- GI50 (HOP-62 NSCLC): 2100 nM
- TGI (HOP-62 NSCLC): 3.56 µM
- GI50 (HOP-92 NSCLC): 1900 nM
- TGI (HOP-92 NSCLC): 3.32 µM
- GI50 (HS 578T breast): 1920 nM
- TGI (HS 578T breast): 3.35 µM
- GI50 (HT29 colon): 1710 nM
- TGI (HT29 colon): 3.1 µM
- GI50 (IGROV1 ovarian): 1650 nM
- TGI (IGROV1 ovarian): 3.01 µM
- GI50 (K-562 leukemia): 1910 nM
- TGI (K-562 leukemia): 3.33 µM
- GI50 (KM12 colon): 1790 nM
- TGI (KM12 colon): 3.23 µM
- GI50 (LOX IMVI melanoma): 1780 nM
- TGI (LOX IMVI melanoma): 3.2 µM
- GI50 (M14 melanoma): 2050 nM
- TGI (M14 melanoma): 3.49 µM
- GI50 (MALME-3M melanoma): 1890 nM
- TGI (MALME-3M melanoma): 3.31 µM
- GI50 (MCF7 breast): 1380 nM
- TGI (MCF7 breast): 2710 nM
- GI50 (MDA-MB-435 melanoma): 1780 nM
- TGI (MDA-MB-435 melanoma): 3.18 µM
- GI50 (MDA-MB-468 breast): 2490 nM
- TGI (MDA-MB-468 breast): 3.96 µM
- GI50 (MOLT-4 leukemia): 1590 nM
- TGI (MOLT-4 leukemia): 2950 nM
- GI50 (NCI-H226 lung): 1700 nM
- TGI (NCI-H226 lung): 3.08 µM
- GI50 (NCI-H23 lung): 1990 nM
- TGI (NCI-H23 lung): 3.42 µM
- GI50 (NCI-H322M lung): 2030 nM
- TGI (NCI-H322M lung): 3.48 µM
- GI50 (NCI-H460 NSCLC): 1720 nM
- TGI (NCI-H460 NSCLC): 3.22 µM
- GI50 (NCI-H522 lung): > 100 µM
- TGI (NCI-H522 lung): > 100 µM
- GI50 (NCI/ADR-RES ovarian): 1830 nM
- TGI (NCI/ADR-RES ovarian): 3.24 µM
- GI50 (OVCAR-3 ovarian): 1910 nM
- TGI (OVCAR-3 ovarian): 3.33 µM
- GI50 (OVCAR-4 ovarian): > 100 µM
- TGI (OVCAR-4 ovarian): > 100 µM
- GI50 (OVCAR-8 ovarian): 2110 nM
- TGI (OVCAR-8 ovarian): 3.59 µM
- GI50 (PC-3 prostate): 1810 nM
- TGI (PC-3 prostate): 3.22 µM
- GI50 (RPMI-8226 leukemia): 2280 nM
- TGI (RPMI-8226 leukemia): 3.75 µM
- GI50 (RXF 393 renal): 1930 nM
- TGI (RXF 393 renal): 3.36 µM
- GI50 (SF-268 CNS): 2200 nM
- TGI (SF-268 CNS): 3.67 µM
- GI50 (SF-295 CNS): > 100 µM
- TGI (SF-295 CNS): > 100 µM
- GI50 (SF-539 CNS): 1860 nM
- TGI (SF-539 CNS): 3.29 µM
- GI50 (SK-MEL-2 melanoma): 1990 nM
- TGI (SK-MEL-2 melanoma): 3.42 µM
- GI50 (SK-MEL-28 melanoma): 1950 nM
- TGI (SK-MEL-28 melanoma): 3.38 µM
- GI50 (SK-MEL-5 melanoma): 1290 nM
- TGI (SK-MEL-5 melanoma): 2580 nM
- GI50 (SK-OV-3 ovarian): 1640 nM
- TGI (SK-OV-3 ovarian): 3.02 µM
- GI50 (SN12C renal): 1910 nM
- TGI (SN12C renal): 3.33 µM
- GI50 (SNB-19 CNS): 2080 nM
- TGI (SNB-19 CNS): 3.54 µM
- GI50 (SNB-75 CNS): 2090 nM
- TGI (SNB-75 CNS): 3.53 µM
- GI50 (SW-620 colon): 1880 nM
- TGI (SW-620 colon): 3.35 µM
- GI50 (TK-10 renal): > 100 µM
- TGI (TK-10 renal): > 100 µM
- GI50 (U251 glioblastoma): 2070 nM
- TGI (U251 glioblastoma): 3.54 µM
- GI50 (UACC-257 melanoma): 1890 nM
- TGI (UACC-257 melanoma): 3.3 µM
- GI50 (UACC-62 melanoma): 1940 nM
- TGI (UACC-62 melanoma): 3.38 µM
